According to patent publication US20150216136A1, “PLANT REGENERATION FROM PROTOPLASTS DERIVED FROM ELAEIS sp SUSPENSION CULTURES” (MALAYSIAN PALM OIL BOARD, priority 2012, published 2015):

How the values were obtained:
Format in all cases: cell-based, Elaeis guineensis
[1] = tested on: oil palm protoplasts; assay: Plant growth regulators (PGRs) optimization on agarose solidified cultures; conditions: within PGR combinations, Y3A or Y3D media
Experimental: The PGRs optimization was performed on agarose solidified cultures. All PGRs used were prepared at the concentration of 1 μM/μl and the pH was adjusted to 5.7. The filter-sterilized PGRs were added in 24 wells culture plate at different combinations and concentration as indicated in Table 3.
Protoplast division frequency was calculated by counting the number of protoplasts divided by the total number of protoplasts in one representative microscope field. Three microscopic fields were averaged to represent one experiment in which the experiment was performed in 3 replicates to give an average range of protoplast division frequency. A similar calculation procedure was used for microcolonies and microcalli formation frequencies.

[2] = tested on: microcalli; assay: Control of callus browning in agarose bead culture; conditions: additive in Y35N5D2iP liquid media surrounding agarose beads; AA 200 mg/l
Experimental: The mixture of protoplasts and agarose was prepared by using the same procedure for preparation of agarose solidified cultures with the exception that the protoplast pellet was resuspended in […] liquid media supplemented with the optimum PGRs and 0.6% w/v agarose sea plaque. Agarose beads were prepared by dropping 200 μl of the mixture into a 60 mm×15 mm petri dish. After agarose solidification, 10 ml of 21% v/v osmoticum solution was added to Petri dish and incubated at 28° C. in the dark for 3-5 days. Three types of osmoticum solutions were used: sucrose, glucose and mannitol. Each was dissolved in water, adjusting the pH to 5.7 and then filter-sterilized. The osmoticum solution was replaced with different liquid media in shaking condition at 50 rpm by refreshing the media at 14-day intervals. When the formation of microcolonies was observed, […] liquid media was changed to Y3 liquid media and the agarose beads were cultured until the microcalli were detected. […] The cultures were continued until the microcalli growth to embryogenic calli.

[3] = tested on: oil palm protoplasts; assay: DNA microinjection mediated transformation of alginate layer-embedded protoplasts; conditions: in injected protoplasts at 28° C.
Experimental: Protoplasts were isolated from a 7 day subculture of a 3 month old embryogenic suspension culture as described above. After twice repeating the washing step, the supernatant was mostly removed leaving 3 ml Washing solution. The centrifuge tube containing the protoplast suspension was incubated in a vertical position in the dark for 24 hours at 28° C. After incubation, the protoplast suspension was diluted by 10 ml of Rinse solution and resuspended by inverting the centrifuge tube for 3-5 times, and then centrifuged at 60×g for 5 minutes at 22° C. After repeating the rinsing step, the supernatant was removed completely and the protoplast pellet was embedded with 3 ml filter-sterilized ([…]) alginate solution consisted of 1% w/v alginic acid sodium salt (A2158, Sigma) dissolved in Y3A liquid media (5.5% w/v sucrose and 11.9% w/v glucose supplemented with 10 μM NAA, 2 μM 2.4-D, 2 μM IBA, 2 μM GA3, 2 μM 2iP and 200 mg/L ascorbic acid) adjusted to pH 5.6, in which the Y3 macroelements was prepared without calcium chloride (CaCl2.2H2O).
Alginate-embedded protoplasts were distributed as a thin layer onto supporting media comprising, 1.5 mL filter-sterilized Y3A (5.5% w/v sucrose and 11.9% w/v glucose supplemented with 0.1% w/v CaCl2.2H2O) solidified with 1% w/v agarose sea plaque, in 35 mm×10 mm petri dish (no. 627161, Greiner Bio-One, Germany). […]

Compound | Cell division at concentration higher than 7 μM [1] | further results
O=C(O)COc1ccc(Cl)cc1Cl [2,4-D, 2,4-Dichlorophenoxyacetic acid] | inhibited cell division | –
CC(C)=CCNc1ncnc2nc[nH]c12 [2iP, 2-γ-Dimethylallylaminopurine] | inhibited cell division | –
O=C1O[C@H]([C@@H](O)CO)C(O)=C1O [AA, Ascorbic acid] | – | Microcalli browning / development of embryogenic callus [2]: developed embryogenic callus
O=[N+]([O-])[O-].[Ag+] [AgNO3, Silver nitrate] | – | Microcalli browning / development of embryogenic callus [2]: did not solve the problem of browning
C=C1C[C@]23C[C@@]1(O)CC[C@H]2[C@@]12C=C[C@H](O)[C@@](C)(C(=O)O1)[C@H]2[C@@H]3C(=O)O [GA3, Gibberellic acid A3] | inhibited cell division | –
O=C(O)CCCc1c[nH]c2ccccc12 [IBA, Indole-3-butyric acid] | inhibited cell division | –
Lucifer Yellow CH dilithium salt | – | Time the fluorescence property is maintained [3]: 48 h
